# Assay results taken from patent US20080145313A1, “Compositions and Methods for the Treatment and Prevention of Neoplastic Disorders” (Genesis Research & Development Corporation Limited, priority 2006, published 2008).
# Tested on: A549 cells
# Experiment: Growth inhibition of siRNA-transfected A549 cells, SYBR Green I DNA content
# Format: cell-based, human
# Conditions: 10 nM siRNA; DNA content 96 hours after transfection
# Procedure: A549 cells (human lung cancer cell line; ATCC No. CCL-185), SK-MeI-5 cells (human melanoma cell line; ATCC No. HTB-70), MCF-7 cells (human adenocarcinoma cell line; ATCC No. HTB-22), HCT-116 cells (colorectal carcinoma; ATCC CCL-247) and HCT-116 p53 null cells (derived from ATCC No. CCL-247; Bunz et al., Science 282:1497-1501, 1998) were cultured in RPMI 1640 medium with 10% v/v heat-inactivated fetal calf serum (FCS). Cells were seeded at a density of 5×10^4 cells/cm^2 in multi-well tissue culture plates. Sequences of Stealth™ siRNA duplexes (Invitrogen) targeting human ribonucleotide reductase subunit 1 (SEQ ID NO: 22) and subunit 2 (SEQ ID NO; 38) are given in SEQ ID NO: 4830-4832 (DNA), and SEQ ID NO: 5136-5138 (RNA) for RRM1, and SEQ ID NO: 5306-5308 (DNA), and SEQ ID NO: 5303-5305 (RNA) for RRM2. siRNAs were transfected at different concentrations into cells using Lipofectamine™ RNAiMAX transfection reagent (Invitrogen). Non-specific siRNA (SEQ ID NO: 4804 and 4805 (DNA), and SEQ ID NO: 5301 and 5302 (RNA)) were used as controls. The cellular DNA content was measured using a SYBR Green I-based fluorometric assay at 24, 48, 72 and 96 hours after transfection (120 hours for the MCF-7 cells), as follows. At the indicated time points following reverse transfection, cells were harvested and frozen at −80° C. overnight. Cells were thawed and cell lysis buffer (phosphate-buffered saline (PBS) containing 1% Triton X-100, pH 7) and SYBR Green I (1:10^5 V/V; Invitrogen) was added to the wells and incubated overnight in the dark at 4° C.
# The following day, cell lysates were mixed thoroughly, and DNA fluorescence was measured with a Wallac Victor^2 plate reader (Turku, Finland) set at an excitation frequency of 485 nm and measuring emission at 535 nm.
# To determine the duration of the knock-down effect of RRM1-targeting siRNA, A549 cells were reverse transfected with 1 or 10 nM RRM1-3 (SEQ ID NO: 4832 (DNA, and SEQ ID NO: 5138 (RNA)) or control siRNA (SEQ ID NO: 4804 (DNA), and SEQ ID NO: 5301 (RNA)), and growth followed over time. Growth inhibition was measured daily as described above for up to ten days. RRM1-3-mediated RRM1 silencing inhibited growth for at least 10 days post-transfection at both 1 and 10 nM (FIG. 11).
# siRNA-mediated inhibition of cancer cell growth was determined in A549 cells as follows. A549 cells (human lung cancer cell line; ATCC No. CCL-185) were cultured in RPMI 1640 medium with 10% v/v heat-inactivated fetal calf serum. Cells were seeded at a density of 5×10^3 cells/cm^2 in multi-well tissue culture plates. Stealth™ siRNA duplexes (Invitrogen) targeting genes involved in cancer energy and metabolism pathways and listed in Table 9, were transfected at 10 nM into cells using Lipofectamine™ RNAiMAX transfection reagent (Invitrogen). Non-specific siRNA (SEQ ID NO: 4804 and 4805 (DNA), and SEQ ID NO: 5301 and 5302 (RNA)) were used as controls. The cellular DNA content was measured using a SYBR Green I-based fluorometric assay at 96 hours after transfection. The cells were harvested and frozen at −80° C. overnight. Cells were thawed and cell lysis buffer (phosphate-buffered saline (PBS) containing 1% Triton X-100, pH 7) and SYBR Green I (1:10^5 v/v; Invitrogen) was added to the wells and incubated overnight in the dark at 4° C. The following day, cell lysates were mixed thoroughly, and DNA fluorescence was measured with a Wallac Victor^2 plate reader (Turku, Finland) set at an excitation frequency of 485 nm and measuring emission at 535 nm.
# Three different siRNAs were tested for each target gene. The average fluorescence units from three replicate wells, representing the amount of DNA per well, were used to determine the effect on growth inhibition. The results are given in Table 10 (energy and metabolism gene targets) and Table 11 (transporter gene targets).
# siRNA-mediated RNAi was also determined on a panel of different cell lines. […]
row,Substance,Growth Inhibition in A549 cells
1,"SEQ ID NO: 4880: siRNA targeting IMPDH2 (chain 1 TCCCTGTTCATATTTCTTCACTTTC; chain 2 UCCCUGUUCAUAUUUCUUCACUUUC; Both strands are one antisense strand in DNA/RNA notation, chemistry not given here, further chemistry not given here; one strand in two spellings)",+ (inhibits by at least 50%)
2,SEQ ID NO: 4846: siRNA targeting FLAD1 (chain 1 TGATGTGTATCCTCGGTCATACAGG; chain 2 UGAUGUGUAUCCUCGGUCAUACAGG; chemistry not given here; one strand in two spellings),− (no growth inhibition with any siRNA)
3,"SEQ ID NO: 4861: siRNA targeting SLC25A5 (ANT2) (chain 1 ATTTGTAGATCTTAACCAGGCAGTC; chain 2 AUUUGUAGAUCUUAACCAGGCAGUC; Both strands are one antisense strand in DNA/RNA notation, chemistry not given here, further chemistry not given here; one strand in two spellings)",− (no growth inhibition with any siRNA)
4,"SEQ ID NO: 4855: siRNA targeting FASN (chain 1 TTGGAAGGCACATCCCAGAGGAAGT; chain 2 UUGGAAGGCACAUCCCAGAGGAAGU; Both strands are one antisense strand in DNA/RNA notation, chemistry not given here, further chemistry not given here; one strand in two spellings)",+ (inhibits by at least 50%)
5,"SEQ ID NO: 4865: siRNA targeting SLC25A6 (ANT3) (chain 1 TTTGCGCCCGAACTGCATCATCATG; chain 2 UUUGCGCCCGAACUGCAUCAUCAUG; Both strands are one antisense strand in DNA/RNA notation, chemistry not given here, further chemistry not given here; one strand in two spellings)",− (no growth inhibition with any siRNA)
6,"SEQ ID NO: 4860: siRNA targeting SLC25A5 (ANT2) (chain 1 ATGCCAGATTCCCTGCAAAGTAGCG; chain 2 AUGCCAGAUUCCCUGCAAAGUAGCG; Both strands are one antisense strand in DNA/RNA notation, chemistry not given here, further chemistry not given here; one strand in two spellings)",+ (inhibits by at least 50%)
7,SEQ ID NO: 4847: siRNA targeting FLAD1 (chain 1 TGCAATGGTGGCTACCTCATCAGGT; chain 2 UGCAAUGGUGGCUACCUCAUCAGGU; chemistry not given here; one strand in two spellings),− (no growth inhibition with any siRNA)
8,SEQ ID NO: 4820: siRNA targeting PFKL (chain 1 TAGTCTCTGAGATCTTACCTTCCGC; chain 2 UAGUCUCUGAGAUCUUACCUUCCGC; chemistry not given here; one strand in two spellings),− (no growth inhibition with any siRNA)
9,SEQ ID NO: 4839: siRNA targeting AK1 (chain 1 TTCTGCACGATCTTCTCACACTGGG; chain 2 UUCUGCACGAUCUUCUCACACUGGG; chemistry not given here; one strand in two spellings),− (no growth inhibition with any siRNA)
10,"SEQ ID NO: 4867: siRNA targeting UQCRC2 (chain 1 AAATGCATTTGCCTCTGCACTTCCC; chain 2 AAAUGCAUUUGCCUCUGCACUUCCC; Both strands are one antisense strand in DNA/RNA notation, chemistry not given here, further chemistry not given here; one strand in two spellings)",− (no growth inhibition with any siRNA)
11,"SEQ ID NO: 4854: siRNA targeting FASN (chain 1 ATGAAGCTCACCCAGTTATCCTTCC; chain 2 AUGAAGCUCACCCAGUUAUCCUUCC; Both strands are one antisense strand in DNA/RNA notation, chemistry not given here, further chemistry not given here; one strand in two spellings)",− (no growth inhibition with any siRNA)
12,SEQ ID NO: 4838: siRNA targeting DHFR (chain 1 TTCTGGCAGAAGTTTATATTTCTCC; chain 2 UUCUGGCAGAAGUUUAUAUUUCUCC; chemistry not given here; one strand in two spellings),+ (inhibits by at least 50%)
13,SEQ ID NO: 4997: siRNA targeting DGUOK (chain 1 GCCAGGAAGCCAGTACAGATCTTTG; chain 2 GCCAGGAAGCCAGUACAGAUCUUUG; chemistry not given here; one strand in two spellings),+ (inhibits by at least 50%)
14,"SEQ ID NO: 4851: siRNA targeting ATP5B (chain 1 TTTCCATGAACTCTGGAGCCTCAGC; chain 2 UUUCCAUGAACUCUGGAGCCUCAGC; Both strands are one antisense strand in DNA/RNA notation, chemistry not given here, further chemistry not given here; one strand in two spellings)",− (no growth inhibition with any siRNA)
15,"SEQ ID NO: 4988: siRNA targeting DCK (chain 1 GCAAGGCATTCCTCTTGAATATTTA; chain 2 GCAAGGCAUUCCUCUUGAAUAUUUA; Both strands are one antisense strand in DNA/RNA notation, chemistry not given here, further chemistry not given here; one strand in two spellings)",− (no growth inhibition with any siRNA)
16,SEQ ID NO: 4806: siRNA targeting ARNT (HIF-1β) (chain 1 ATCAGTGGATGTGTTGCCAGTTCCC; chain 2 AUCAGUGGAUGUGUUGCCAGUUCCC; chemistry not given here; one strand in two spellings),− (no growth inhibition with any siRNA)
17,SEQ ID NO: 4992: siRNA targeting TK2 (chain 1 GGGATCGAATATTAACTCCAGAGAA; chain 2 GGGAUCGAAUAUUAACUCCAGAGAA; chemistry not given here; one strand in two spellings),− (no growth inhibition with any siRNA)
18,SEQ ID NO: 4843: siRNA targeting NADSYN (chain 1 ATGAGCTGCAAACAGAGGGCTCTTC; chain 2 AUGAGCUGCAAACAGAGGGCUCUUC; chemistry not given here; one strand in two spellings),− (no growth inhibition with any siRNA)
